For 41 molecules, IC50 results are on record in patent publication US20120029190A1, “COMPOUNDS FOR TREATING DISORDERS MEDIATED BY METABOTROPIC GLUTAMATE RECEPTOR 5, AND METHODS OF USE THEREOF” (priority 2009, published 2012).

Usually IC50 stands for the point on the concentration scale where inhibition reaches its midpoint.

The target in the assay is T1, human recombinant mGluR5 receptor (Homo sapiens, UniProt P41594).
T1 construct: expressed in transfected cells; expression induced with doxycycline
T1 sequence (P41594 21-1212): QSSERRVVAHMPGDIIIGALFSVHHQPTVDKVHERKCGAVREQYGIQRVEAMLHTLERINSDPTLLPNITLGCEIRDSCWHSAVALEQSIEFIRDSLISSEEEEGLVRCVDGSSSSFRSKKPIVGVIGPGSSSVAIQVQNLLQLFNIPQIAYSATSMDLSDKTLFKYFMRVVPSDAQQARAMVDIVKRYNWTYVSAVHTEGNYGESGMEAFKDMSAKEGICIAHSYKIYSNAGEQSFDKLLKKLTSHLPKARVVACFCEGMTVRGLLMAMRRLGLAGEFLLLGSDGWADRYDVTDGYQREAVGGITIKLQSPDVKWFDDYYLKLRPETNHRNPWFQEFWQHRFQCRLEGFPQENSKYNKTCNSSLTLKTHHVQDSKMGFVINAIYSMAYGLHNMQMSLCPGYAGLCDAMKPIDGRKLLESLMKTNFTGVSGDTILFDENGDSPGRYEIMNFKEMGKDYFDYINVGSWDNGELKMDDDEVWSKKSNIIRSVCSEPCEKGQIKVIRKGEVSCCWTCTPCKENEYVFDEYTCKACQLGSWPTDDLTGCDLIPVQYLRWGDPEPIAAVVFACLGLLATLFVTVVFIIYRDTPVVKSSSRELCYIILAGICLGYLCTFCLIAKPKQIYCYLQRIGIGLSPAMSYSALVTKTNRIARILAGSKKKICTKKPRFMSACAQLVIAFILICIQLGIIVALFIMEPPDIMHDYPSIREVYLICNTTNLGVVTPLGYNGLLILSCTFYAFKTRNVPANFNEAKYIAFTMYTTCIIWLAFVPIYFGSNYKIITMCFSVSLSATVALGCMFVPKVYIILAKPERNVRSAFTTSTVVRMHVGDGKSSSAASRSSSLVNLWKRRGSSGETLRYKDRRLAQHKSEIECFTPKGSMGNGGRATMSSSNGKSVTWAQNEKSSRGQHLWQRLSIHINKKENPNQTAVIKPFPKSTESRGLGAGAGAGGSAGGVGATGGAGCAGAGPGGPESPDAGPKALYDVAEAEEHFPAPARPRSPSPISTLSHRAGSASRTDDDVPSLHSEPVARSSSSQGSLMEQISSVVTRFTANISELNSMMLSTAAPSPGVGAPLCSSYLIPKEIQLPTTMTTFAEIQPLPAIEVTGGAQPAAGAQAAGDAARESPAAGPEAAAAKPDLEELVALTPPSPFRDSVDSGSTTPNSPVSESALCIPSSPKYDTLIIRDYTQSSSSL
Description: mGluR5 in vitro functional assay (aequorin cell line, inhibition of glutamate EC80 response). It counts as cell-based. The settings on record: Table 2; aequorin cell line expressing human mGluR5, reference agonist glutamate at EC80; obtained in duplicate; read-out: IC50. Summed up: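 Doxycycline-induced (600 ng/mL, 18 h) aequorin cells loaded with coelenterazine h ≥4 h at room temperature; compound preincubated 3 min before glutamate at EC80. Luminescence recorded, normalized to digitonin or 20 mM ATP wells; % inhibition of EC80 response fitted by sigmoidal nonlinear regression.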
For `N#Cc1cccc(N2CCc3nc(C4CCCCC4)oc3C2)c1` [Compound 149, 3-(2-Cyclohexyl-6,7-dihydrooxazolo[5,4-c]pyridin-5(4H)-yl)benzonitrile], the half-maximal inhibitory concentration (IC50) is under 10000 nM.
In the case of `O=C(CN1CCc2nc(-c3ccccn3)oc2C1)c1ccc(F)cc1` [Compound 150, 1-(4-Fluorophenyl)-2-(2-(pyridin-2-yl)-6,7-dihydrooxazolo[5,4-c]pyridin-5(4H)-yl)ethanone], the IC50 was over 10000 nM.
The same measure for `COC(=O)N1CCc2oc(-c3ccccn3)nc2C1` [Compound 151, Methyl 2-(pyridin-2-yl)-6,7-dihydrooxazolo[4,5-c]pyridine-5(4H)-carboxylate]: over 10000 nM; for `Fc1ccc(N2CCc3oc(-c4ccccn4)nc3C2)cc1F` [Compound 152, 5-(3,4-Difluorophenyl)-2-(pyridin-2-yl)-4,5,6,7-tetrahydrooxazolo[4,5-c]pyridine]: under 1000 nM.
For `Fc1cc(N2CCc3oc(-c4ccccn4)nc3C2)cc(F)c1F` [Compound 153, 2-(Pyridin-2-yl)-5-(3,4,5-trifluorophenyl)-4,5,6,7-tetrahydrooxazolo[4,5-c]pyridine], the 50% inhibitory concentration (IC50) was under 1000 nM.
Next, `c1ccc(-c2nc3c(o2)CCN(c2cccnc2)C3)nc1` [Compound 154, 2-(Pyridin-2-yl)-5-(pyridin-3-yl)-4,5,6,7-tetrahydrooxazolo[4,5-c]pyridine]: under 1000 nM; `N#Cc1cc(F)cc(N2CCc3oc(Cc4ccccc4)nc3C2)c1` [Compound 155, 3-(2-Benzyl-6,7-dihydrooxazolo[4,5-c]pyridin-5(4H)-yl)-5-fluorobenzonitrile]: over 10000 nM.
For `Clc1ccccc1N1CCc2oc(-c3ccccn3)nc2C1` [Compound 156, 5-(2-Chlorophenyl)-2-(pyridin-2-yl)-4,5,6,7-tetrahydrooxazolo[4,5-c]pyridine], the IC50 was under 1000 nM.
Regarding `Clc1ccc(N2CCc3oc(-c4ccccn4)nc3C2)cc1` [Compound 157, 5-(4-Chlorophenyl)-2-(pyridin-2-yl)-4,5,6,7-tetrahydrooxazolo[4,5-c]pyridine], the IC50 was under 1000 nM.
For the molecule `Fc1cc(Cl)cc(N2CCc3oc(-c4ccccn4)nc3C2)c1` [Compound 158, 5-(3-Chloro-5-fluorophenyl)-2-(pyridin-2-yl)-4,5,6,7-tetrahydrooxazolo[4,5-c]pyridine], the half-inhibitory concentration (IC50) is under 1000 nM.
As for `Fc1ccc(-c2nc3c(o2)CCN(c2cc(F)cc(Cl)c2)C3)nc1` [Compound 159, 5-(3-Chloro-5-fluorophenyl)-2-(5-fluoropyridin-2-yl)-4,5,6,7-tetrahydrooxazolo[4,5-c]pyridine], the IC50 was under 1000 nM.
In the case of `N#Cc1cc(F)cc(N2CCc3oc(-c4cncnc4)nc3C2)c1` [Compound 160, 3-Fluoro-5-(2-(pyrimidin-5-yl)-6,7-dihydrooxazolo[4,5-c]pyridin-5(4H)-yl)benzonitrile], the IC50 is over 10000 nM.
Turning to `Cc1nc(-c2nc3c(o2)CCN(c2ccccn2)C3)cs1` [Compound 161, 2-(2-Methylthiazol-4-yl)-5-(pyridin-2-yl)-4,5,6,7-tetrahydrooxazolo[4,5-c]pyridine], the 50% inhibitory concentration (IC50) was under 1000 nM.
Take `Clc1cc(Cl)cc(N2CCc3oc(-c4ccccn4)nc3C2)c1` [Compound 162, 5-(3,5-Dichlorophenyl)-2-(pyridin-2-yl)-4,5,6,7-tetrahydrooxazolo[4,5-c]pyridine]: the IC50 is under 1000 nM.
Consider `Cc1nc(N2CCc3oc(-c4ccccn4)nc3C2)cs1` [Compound 163, 5-(2-Methylthiazol-4-yl)-2-(pyridin-2-yl)-4,5,6,7-tetrahydrooxazolo[4,5-c]pyridine], for which the IC50 is under 1000 nM.
The same measure for `N#Cc1cc(F)cc(-c2nc3c(o2)CCN(c2ccccn2)C3)c1` [Compound 164, 3-Fluoro-5-(5-(pyridin-2-yl)-4,5,6,7-tetrahydrooxazolo[4,5-c]pyridin-2-yl)benzonitrile]: under 10000 nM; for `N#Cc1cc(F)ccc1N1CCc2oc(-c3ccccn3)nc2C1` [Compound 165, 5-Fluoro-2-(2-(pyridin-2-yl)-6,7-dihydrooxazolo[4,5-c]pyridin-5(4H)-yl)benzonitrile]: under 1000 nM; for `Fc1ccccc1N1CCc2oc(-c3ccccn3)nc2C1` [Compound 166, 5-(2-Fluorophenyl)-2-(pyridin-2-yl)-4,5,6,7-tetrahydrooxazolo[4,5-c]pyridine]: under 1000 nM.
For `Fc1ccc(-c2nc3c(o2)CCN(c2ccccc2Cl)C3)nc1` [Compound 167, 5-(2-Chlorophenyl)-2-(5-fluoropyridin-2-yl)-4,5,6,7-tetrahydrooxazolo[4,5-c]pyridine], the IC50 is under 1000 nM.
As to `Clc1ccccc1N1CCc2oc(-c3ccncn3)nc2C1` [Compound 168, 5-(2-Chlorophenyl)-2-(pyrimidin-4-yl)-4,5,6,7-tetrahydrooxazolo[4,5-c]pyridine], the IC50 is under 10000 nM.
The same measure for `Fc1ccc(F)c(N2CCc3oc(-c4ccccn4)nc3C2)c1` [Compound 169, 5-(2,5-Difluorophenyl)-2-(pyridin-2-yl)-4,5,6,7-tetrahydrooxazolo[4,5-c]pyridine]: under 1000 nM; for `Clc1cccc(N2CCc3oc(-c4ccccn4)nc3C2)c1Cl` [Compound 170, 5-(2,3-Dichlorophenyl)-2-(pyridin-2-yl)-4,5,6,7-tetrahydrooxazolo[4,5-c]pyridine]: under 1000 nM.
Consider `Fc1ccc(N2CCc3oc(-c4ccccn4)nc3C2)c(Cl)c1` [Compound 171, 5-(2-Chloro-4-fluorophenyl)-2-(pyridin-2-yl)-4,5,6,7-tetrahydrooxazolo[4,5-c]pyridine], for which the IC50 is under 1000 nM.
As for `Cc1nc(-c2nc3c(o2)CCN(c2ccccc2Cl)C3)cs1` [Compound 172, 5-(2-Chlorophenyl)-2-(2-methylthiazol-4-yl)-4,5,6,7-tetrahydrooxazolo[4,5-c]pyridine], the IC50 was under 1000 nM.
The same measure for `Clc1ccc(Cl)c(N2CCc3oc(-c4ccccn4)nc3C2)c1` [Compound 173, 5-(2,5-Dichlorophenyl)-2-(pyridin-2-yl)-4,5,6,7-tetrahydrooxazolo[4,5-c]pyridine]: under 1000 nM; for `Clc1cccc(Cl)c1N1CCc2oc(-c3ccccn3)nc2C1` [Compound 174, 5-(2,6-Dichlorophenyl)-2-(pyridin-2-yl)-4,5,6,7-tetrahydrooxazolo[4,5-c]pyridine]: under 1000 nM.
Next, `Fc1ccc(Cl)c(N2CCc3oc(-c4ccccn4)nc3C2)c1` [Compound 175, 5-(2-Chloro-5-fluorophenyl)-2-(pyridin-2-yl)-4,5,6,7-tetrahydrooxazolo[4,5-c]pyridine]: under 1000 nM; `N#Cc1ccc(F)cc1N1CCc2oc(-c3ccccn3)nc2C1` [Compound 176, 4-Fluoro-2-(2-(pyridin-2-yl)-6,7-dihydrooxazolo[4,5-c]pyridin-5(4H)-yl)benzonitrile]: under 1000 nM.
Consider `COc1ccccc1N1CCc2oc(-c3ccccn3)nc2C1` [Compound 177, 5-(2-Methoxyphenyl)-2-(pyridin-2-yl)-4,5,6,7-tetrahydrooxazolo[4,5-c]pyridine], for which the 50% inhibitory concentration (IC50) is under 1000 nM.
On to `Oc1ccccc1N1CCc2oc(-c3ccccn3)nc2C1` [Compound 178, 2-(2-(Pyridin-2-yl)-6,7-dihydrooxazolo[4,5-c]pyridin-5(4H)-yl)phenol], for which the half-maximal inhibitory concentration (IC50) was under 1000 nM.
Next, `COc1ccc(F)cc1N1CCc2oc(-c3ccccn3)nc2C1` [Compound 179, 5-(5-Fluoro-2-methoxyphenyl)-2-(pyridin-2-yl)-4,5,6,7-tetrahydrooxazolo[4,5-c]pyridine]: under 1000 nM.
In the case of `N#Cc1ccccc1N1CCc2oc(-c3ccccn3)nc2C1` [Compound 180, 2-(2-(Pyridin-2-yl)-6,7-dihydrooxazolo[4,5-c]pyridin-5(4H)-yl)benzonitrile], the IC50 is under 1000 nM.
As to `c1ccc(-c2nc3c(o2)CCN(c2cccc4ccccc24)C3)nc1` [Compound 181, 5-(Naphthalen-1-yl)-2-(pyridin-2-yl)-4,5,6,7-tetrahydrooxazolo[4,5-c]pyridine], the IC50 is under 1000 nM.
As for `FC(F)(F)c1ccccc1N1CCc2oc(-c3ccccn3)nc2C1` [Compound 182, 2-(Pyridin-2-yl)-5-(2-(trifluoromethyl)phenyl)-4,5,6,7-tetrahydrooxazolo[4,5-c]pyridine], the IC50 was under 1000 nM.
In the case of `Clc1cnccc1N1CCc2oc(-c3ccccn3)nc2C1` [Compound 184, 5-(3-Chloropyridin-4-yl)-2-(pyridin-2-yl)-4,5,6,7-tetrahydrooxazolo[4,5-c]pyridine], the IC50 is under 10000 nM.
Take `N#Cc1ccc(F)c(N2CCc3oc(-c4ccccn4)nc3C2)c1` [Compound 185, 4-Fluoro-3-(2-(pyridin-2-yl)-6,7-dihydrooxazolo[4,5-c]pyridin-5(4H)-yl)benzonitrile]: the half-inhibitory concentration (IC50) was under 1000 nM.
`N#Cc1cc(Cl)cc(N2CCc3oc(-c4ccccn4)nc3C2)c1` [Compound 186, 3-Chloro-5-(2-(pyridin-2-yl)-6,7-dihydrooxazolo[4,5-c]pyridin-5(4H)-yl)benzonitrile]: the concentration for half-maximal inhibition (IC50) is under 1000 nM.
For the molecule `Clc1cccnc1N1CCc2oc(-c3ccccn3)nc2C1` [Compound 187, 5-(3-Chloropyridin-2-yl)-2-(pyridin-2-yl)-4,5,6,7-tetrahydrooxazolo[4,5-c]pyridine], the half-maximal inhibitory concentration (IC50) is under 1000 nM.
Consider `Fc1cc(F)c(F)c(N2CCc3oc(-c4ccccn4)nc3C2)c1` [Compound 188, 2-(Pyridin-2-yl)-5-(2,3,5-trifluorophenyl)-4,5,6,7-tetrahydrooxazolo[4,5-c]pyridine], for which the half-maximal inhibitory concentration (IC50) was under 1000 nM.
For `N#Cc1c(F)cccc1N1CCc2oc(-c3ccccn3)nc2C1` [Compound 189, 2-Fluoro-6-(2-(pyridin-2-yl)-6,7-dihydrooxazolo[4,5-c]pyridin-5(4H)-yl)benzonitrile], the IC50 was under 1000 nM.
Next, `O=C(CN1CCc2oc(-c3cccc(Cl)c3)nc2C1)c1ccc(F)cc1` [Compound 190, 2-(2-(3-Chlorophenyl)-6,7-dihydrooxazolo[4,5-c]pyridin-5(4H)-yl)-1-(4-fluorophenyl)ethanone]: under 10000 nM.
